Reference: ChEMBL document CHEMBL1152405, “Bis-anthracenyl isoxazolyl amides have enhanced anticancer activity” (Bioorg Med Chem Lett, 2009)

Assays:
Type in all cases: functional
SK-OV-3 [1] = assay: Growth inhibition of human SKOV3 cells after 24 hrs by MTT assay; details: SK-OV-3, 24 h
NCI-H322M = assay: Growth inhibition of human NCI-H322M cells after 24 hrs by MTT assay
LOX IMVI = assay: Growth inhibition of human LOXIMVI cells at 10 uM after 24 hrs by MTT assay relative to control; set-up: scale not given: the % may be the effect or the level left
HOP-62 = assay: Growth inhibition of human HOP62 cells after 24 hrs by MTT assay; details: HOP-62, 24 h
RXF 393 = assay: Growth inhibition of human RXF393 cells at 10 uM after 24 hrs by MTT assay relative to control; set-up: scale not given: the % may be the effect or the level left
OVCAR-3 [2] = assay: Growth inhibition of human OVCAR-3 cells after 24 hrs by MTT assay; details: OVCAR-3, 24 h
NCI-H460 = assay: Growth inhibition of human NCI-H460 cells after 24 hrs by MTT assay; details: NCI-H460, 24 h
A498 [3] = assay: Growth inhibition of human A498 cells at 10 uM after 24 hrs by MTT assay relative to control; set-up: scale not given: the % may be the effect or the level left
BT-549 = assay: Growth inhibition of human BT549 cells after 24 hrs by MTT assay; details: BT-549, 24 h
UO-31 = assay: Growth inhibition of human UO31 cells at 10 uM after 24 hrs by MTT assay relative to control; set-up: scale not given: the % may be the effect or the level left
M14 [4] = assay: Growth inhibition of human M14 cells after 24 hrs by MTT assay; details: M14, 24 h
SK-OV-3 [5] = assay: Growth inhibition of human SKOV3 cells at 10 uM after 24 hrs by MTT assay relative to control; set-up: scale not given: the % may be the effect or the level left
HCC 2998 = assay: Growth inhibition of human HCC2998 cells after 24 hrs by MTT assay; details: HCC 2998, 24 h
HOP-92 = assay: Growth inhibition of human HOP92 cells at 10 uM after 24 hrs by MTT assay relative to control; set-up: scale not given: the % may be the effect or the level left
OVCAR-4 = assay: Growth inhibition of human OVCAR4 cells after 24 hrs by MTT assay; details: OVCAR-4, 24 h
A498 [6] = assay: Growth inhibition of human A498 cells after 24 hrs by MTT assay; details: A498, 24 h
TK-10 = assay: Growth inhibition of human TK10 cells at 10 uM after 24 hrs by MTT assay relative to control; set-up: scale not given: the % may be the effect or the level left
HL-60(TB) = assay: Growth inhibition of human HL-60(TB) cells at 10 uM after 24 hrs by MTT assay relative to control; set-up: scale not given: the % may be the effect or the level left
UACC-257 = assay: Growth inhibition of human UACC257 cells at 10 uM after 24 hrs by MTT assay relative to control; set-up: scale not given: the % may be the effect or the level left
U-251 = assay: Growth inhibition of human U251 cells at 10 uM after 24 hrs by MTT assay relative to control; set-up: scale not given: the % may be the effect or the level left
SNB-19 = assay: Growth inhibition of human SNB19 cells after 24 hrs by MTT assay; details: SNB-19, 24 h
NCI-H23 = assay: Growth inhibition of human NCI-H23 cells after 24 hrs by MTT assay; details: NCI-H23, 24 h
SK-MEL-2 = assay: Growth inhibition of human SK-MEL-2 cells after 24 hrs by MTT assay; details: SK-MEL-2, 24 h
MDA-MB-231 = assay: Growth inhibition of human MDA-MB-231 cells after 24 hrs by MTT assay; details: MDA-MB-231, 24 h
PC-3 [7] = assay: Growth inhibition of human PC3 cells after 24 hrs by MTT assay; details: PC-3, 24 h
DU-145 = assay: Growth inhibition of human DU145 cells at 10 uM after 24 hrs by MTT assay relative to control; set-up: scale not given: the % may be the effect or the level left
SF-295 = assay: Growth inhibition of human SF295 cells after 24 hrs by MTT assay; details: SF-295, 24 h
CCRF-CEM = assay: Growth inhibition of human CCRF-CEM cells after 24 hrs by MTT assay
HCT-116 = assay: Growth inhibition of human HCT116 cells after 24 hrs by MTT assay; details: HCT-116, 24 h
MDA-MB-468 = assay: Growth inhibition of human MDA-MB-468 cells at 10 uM after 24 hrs by MTT assay relative to control; set-up: scale not given: the % may be the effect or the level left
PC-3 [8] = assay: Growth inhibition of human PC3 cells at 10 uM after 24 hrs by MTT assay relative to control; set-up: scale not given: the % may be the effect or the level left
OVCAR-3 [9] = assay: Growth inhibition of human OVCAR-3 cells at 10 uM after 24 hrs by MTT assay relative to control; set-up: scale not given: the % may be the effect or the level left
M14 [10] = assay: Growth inhibition of human M14 cells at 10 uM after 24 hrs by MTT assay relative to control; set-up: scale not given: the % may be the effect or the level left
[11] = read-out: LC50 (the source's name)
[12] = read-out: pLC50 (the source's name) (converted)

SMILES: Cc1onc(-c2c3ccccc3c(Cl)c3ccccc23)c1C(=O)Nc1cc(C(=O)NCCCN(C)CCCNC(=O)c2cc(NC(=O)c3c(-c4c5ccccc5c(Cl)c5ccccc45)noc3C)cn2C)n(C)c1
- TGI (SK-OV-3 [1]): 2.87 µM
- GI50 (SK-OV-3 [1]; read-out: GI50): 1.54 µM
- CC50 (SK-OV-3 [1]; [11]): 5.36 µM
- GI50 (SK-OV-3 [1]; read-out: pGI50 (converted)): 1.55 µM
- CC50 (SK-OV-3 [1]; [12]): 5.37 µM
- TGI (NCI-H322M): 4.87 µM
- GI50 (NCI-H322M; read-out: GI50): 2.18 µM
- CC50 (NCI-H322M; [11]): 14.6 µM
- GI50 (NCI-H322M; read-out: pGI50 (converted)): 2.19 µM
- CC50 (NCI-H322M; [12]): 14.5 µM
- Activity (LOX IMVI): -100%
- TGI (HOP-62): 2.65 µM
- GI50 (HOP-62; read-out: GI50): 1.36 µM
- CC50 (HOP-62; [11]): 5.14 µM
- GI50 (HOP-62; read-out: pGI50 (converted)): 1.35 µM
- CC50 (HOP-62; [12]): 5.13 µM
- Activity (RXF 393): -61.83%
- TGI (OVCAR-3 [2]): 2.61 µM
- GI50 (OVCAR-3 [2]; read-out: GI50): 1.31 µM
- CC50 (OVCAR-3 [2]; [11]): 5.19 µM
- GI50 (OVCAR-3 [2]; read-out: pGI50 (converted)): 1.32 µM
- CC50 (OVCAR-3 [2]; [12]): 5.13 µM
- TGI (NCI-H460): 2.23 µM
- GI50 (NCI-H460; read-out: GI50): 1.05 µM
- CC50 (NCI-H460; [11]): 4.72 µM
- GI50 (NCI-H460; read-out: pGI50 (converted)): 1.05 µM
- CC50 (NCI-H460; [12]): 4.68 µM
- Activity (A498 [3]): 103.19%
- TGI (BT-549): 10.2 µM
- GI50 (BT-549; read-out: GI50): 2.92 µM
- CC50 (BT-549; [11]): 100 µM
- GI50 (BT-549; read-out: pGI50 (converted)): 2.95 µM
- CC50 (BT-549; [12]): > 100 µM
- Activity (UO-31): -80.7%
- TGI (M14 [4]): 2.8 µM
- GI50 (M14 [4]; read-out: GI50): 1.48 µM
- CC50 (M14 [4]; [11]): 5.29 µM
- GI50 (M14 [4]; read-out: pGI50 (converted)): 1.48 µM
- CC50 (M14 [4]; [12]): 5.25 µM
- Activity (SK-OV-3 [5]): -100%
- TGI (HCC 2998): 2.94 µM
- GI50 (HCC 2998; read-out: GI50): 1.59 µM
- CC50 (HCC 2998; [11]): 5.42 µM
- GI50 (HCC 2998; read-out: pGI50 (converted)): 1.58 µM
- CC50 (HCC 2998; [12]): 5.37 µM
- Activity (HOP-92): -16.66%
- TGI (OVCAR-4): 2.88 µM
- GI50 (OVCAR-4; read-out: GI50): 1.49 µM
- CC50 (OVCAR-4; [11]): 5.56 µM
- GI50 (OVCAR-4; read-out: pGI50 (converted)): 1.48 µM
- CC50 (OVCAR-4; [12]): 5.62 µM
- TGI (A498 [6]): 17.7 µM
- GI50 (A498 [6]; read-out: GI50): 2.63 µM
- CC50 (A498 [6]; [11]): 44.4 µM
- GI50 (A498 [6]; read-out: pGI50 (converted)): 2.63 µM
- CC50 (A498 [6]; [12]): 44.7 µM
- Activity (TK-10): -89.17%
- Activity (HL-60(TB)): -94.78%
- Activity (UACC-257): -60.8%
- Activity (U-251): -100%
- TGI (SNB-19): 3.5 µM
- GI50 (SNB-19; read-out: GI50): 1.56 µM
- CC50 (SNB-19; [11]): 7.86 µM
- GI50 (SNB-19; read-out: pGI50 (converted)): 1.55 µM
- CC50 (SNB-19; [12]): 7.94 µM
- TGI (NCI-H23): 3.01 µM
- GI50 (NCI-H23; read-out: GI50): 1.54 µM
- CC50 (NCI-H23; [11]): 5.85 µM
- GI50 (NCI-H23; read-out: pGI50 (converted)): 1.55 µM
- CC50 (NCI-H23; [12]): 5.89 µM
- TGI (SK-MEL-2): 4.1 µM
- GI50 (SK-MEL-2; read-out: GI50): 2.08 µM
- GI50 (SK-MEL-2; read-out: pGI50 (converted)): 2.09 µM
- TGI (MDA-MB-231): 2.76 µM
- GI50 (MDA-MB-231; read-out: GI50): 1.37 µM
- GI50 (MDA-MB-231; read-out: pGI50 (converted)): 1.38 µM
- TGI (PC-3 [7]): 2.69 µM
- GI50 (PC-3 [7]; read-out: GI50): 1.4 µM
- CC50 (PC-3 [7]; [11]): 5.19 µM
- GI50 (PC-3 [7]; read-out: pGI50 (converted)): 1.41 µM
- CC50 (PC-3 [7]; [12]): 5.25 µM
- Activity (DU-145): -100%
- TGI (SF-295): 3.33 µM
- GI50 (SF-295; read-out: GI50): 1.67 µM
- GI50 (SF-295; read-out: pGI50 (converted)): 1.66 µM
- TGI (CCRF-CEM): 3.55 µM
- GI50 (CCRF-CEM; read-out: GI50): 1.6 µM
- CC50 (CCRF-CEM; [11]): 7.9 µM
- GI50 (CCRF-CEM; read-out: pGI50 (converted)): 1.58 µM
- CC50 (CCRF-CEM; [12]): 7.94 µM
- TGI (HCT-116): 2.88 µM
- GI50 (HCT-116; read-out: GI50): 1.54 µM
- GI50 (HCT-116; read-out: pGI50 (converted)): 1.55 µM
- Activity (MDA-MB-468): -100%
- Activity (PC-3 [8]): -100%
- Activity (OVCAR-3 [9]): -100%
- Activity (M14 [10]): -92.68%
